In US20240383852A1, “ANTI-VIRAL COMPOUNDS” (INFEX Therapeutics Limited, priority 2021, published 2024):

Experiments:
[1] = system: human Hep G2 cells (ATCC HB-8065); assay: Cytotoxicity in Hep G2 cells (CellTiter-Glo); format: cell-based; details: Hep G2 cells, 100 μM test article, 24-hour exposure
SARS-CoV-2 = assay: Anti-viral potency in VERO E6 cells (cytopathic viral activity, crystal violet); format: cell-based; details: Severe acute respiratory syndrome coronavirus 2, Vero C1008, 48 h, read-out: SARS-COV-2 EC50 (μM)
SARS-CoV-2 PLpro = target: T1, SARS-CoV-2 PLpro (Severe acute respiratory syndrome coronavirus 2, UniProt P0DTD1); assay: biochemical; details: 60 nM papain-like protease, 50 μM Z-RLRGG-AMC, pH 7.5, 37° C.; read-out: SARS-CoV-2 PLpro IC50
T1 construct: containing 60 nM papain-like protease

Structure (SMILES)	% Cell Viability [1] [%]	EC50 (SARS-CoV-2) [µM]	IC50 (SARS-CoV-2 PLpro) [nM]
COc1ccc([C@@H](C)NC(=O)c2cc(N3CC4CNCC4C3)ccc2C)cc1-c1cnn(C)c1 (stereo partly drawn) [Example 261, 5-(2,3,3a,4,6,6a-Hexahydro-1H-pyrrolo[3,4-c]pyrrol-5-yl)-N-[(1R)-1-[4-methoxy-3-(1-methylpyrazol-4-yl)phenyl]ethyl]-2-methyl-benzamide]	49.2	< 15	< 2000
COc1cc(-c2cnn(C)c2)cc([C@@H](C)NC(=O)c2cc(N3CCNCC3)ccc2C)c1 [Example 235, N-[(1R)-1-[3-Methoxy-5-(1-methylpyrazol-4-yl)phenyl]ethyl]-2-methyl-5-piperazin-1-yl-benzamide]	90.6	< 5	< 2000
COc1ccc([C@@H](C)NC(=O)c2cc(N3CC4CN(C)CC4C3)ccc2C)cc1OC (stereo partly drawn) [Example 9, N-[(1R)-1-(3,4-Dimethoxyphenyl)ethyl]-2-methyl-5-(2-methyl-1,3,3a,4,6,6a-hexahydropyrrolo[3,4-c]pyrrol-5-yl)benzamide]	96.5	< 15	< 5000
